“Also recorded” adds a separate entry of the source. Peptide text beside a SMILES is read from it.
Columns and labels:
[1] = system: A549 human lung carcinoma cells; assay: phosphonucleolin cytoblot, suppressors of G2-arresting agents; assay type: cell-based; conditions: for prevention of nocodazole mitotic arrest: simultaneous addition with 250 nM nocodazole, 14 μM ICRF-193, 20 μM roscovitine
Procedure: (§1) FIG. 11. Cytoblots can be used to screen for small molecule suppressors of anti-proliferative agents using the presence of phosphonucleolin, and for small molecules that induce exit from mitosis using the absence of phosphonucleolin. […] A549 human lung carcinoma cells were seeded at a density of 4000 cells in 40 μL of DMEM+ in each well of an opaque 384-well plate and incubated for 24 hours at 37° C. with 5% CO2. […] Cells were then incubated for 18 hours at 37° C. with 5% CO2 and a phosphonucleolin cytoblot was performed. (c) HeLaS3 cells were seeded at a density of 4000 cells in 40 μL of DMEM+ in each well of an opaque 384-well plate and incubated for 24 hours at 37° C. with 5% CO2. Cells were either left untreated or treated with 554 nM nocodazole for 14 hours to arrest cells in mitosis. Roscovitine was then added to the final concentrations indicated in a final volume of 50 μL and cells were incubated for 4 hours at 37° C. with 5% CO2. Finally, BrdU was added to a final concentration of 10 μM to those wells that were assayed for BrdU incorporation, and the cells incubated for an additional 6 hours at 37° C. with 5% CO2. BrdU and phosphonucleolin cytoblots were performed. […] HeLa cells were seeded at a density of 4000 cells per well in 40 μL of DMEM+ in each well of an opaque 384 well plate and incubated overnight at 37° C. with 5% CO2. Cells were then treated with either an equivalent amount of DMSO or nocodazole to a final concentration of 415 nM and the cells incubated for an additional 14 hours at 37° C. with 5% CO2. Roscovitine was then added to the final concentrations indicated and final volume of 50 μL and cells incubated for 4 hours 37° C. with 5% CO2. Finally, BrdU was added to a final concentration of 10 μM to those wells the be assayed for BrdU incorporation and the cells incubated for an additional 6 hours at 37° C. with 5% CO2. BrdU and TG-3 cytoblots were performed (see Protocols). Wells are shown magnified 4×. […] A549 human lung carcinoma cells were seeded at a density of 4000 cells in 40 uL of DMEM+ in each well of an opaque 384 well plate and incubated for 24 hours at 37° C. with 5% CO2. […] Cells were then incubated for 18 hours at 37° C. with 5% CO2 and a TG-3 cytoblot performed (see Protocol).
These purine analogs are known to be non-specific competitive inhibitors of 5′-adenosine triphosphate binding and therefore are likely to inhibit a wide range of kinases in the cell.

[2] = system: Mv1Lu mink lung epithelial cells; assay: 384 well anti-BrdU cytoblot; assay type: cell-based; conditions: 384-well plate; antiproliferative agents 24 hours, then 10 μM BrdU 16 hours (FIG. 2)
Text: FIG. 1. An immunodetection assay for DNA synthesis in high density arrays of mammalian cells. (a) Cartoon depiction of an anti-BrdU cytoblot. The thymine analog 5-bromodeoxyuridine (BrdU) is incorporated into the DNA of cells that are actively replicating their DNA. The cells are in the well, and BrdU is detected with a two step antibody binding procedure. The second antibody is conjugated to the enzyme horseradish peroxidase. In the presence of the chemiluminescent substrate luminol as well as hydrogen peroxide, light of wavelength 428 nm is generated. The light emission can be detected by exposing the plate to film. (b) A cytoblot can detect TGF-β's ability to prevent BrdU incorporation in mink lung epithelial cells. 2000 Mv1Lu mink lung epithelial cells were seeded in each well of a white, opaque 384 well plate. The cells were seeded in the indicated concentrations of TGF-β in 50 μL of DMEM with 1% fetal bovine serum (FBS), 100 units/mL penicillin G sodium, 100 μg/mL streptomycin sulfate and 100 μM each of the amino acids alanine, aspartic acid, glutamine, glycine, asparagine and proline (referred to throughout as 1% mink medium) and allowed to incubate at 37° C. with 5% CO2. After 16 hours, 5.5 μL of 100 μM BrdU in 1% mink medium was added to each well, for a final concentration of 10 μM BrdU. The cells were incubated at 37° C. with 5% CO2 for an additional 16 hours and then an anti-BrdU cytoblot protocol was performed (see protocol). Wells shown are magnified 4×.
FIG. 2. A cytoblot can detect the ability of numerous antiproliferative agents to inhibit BrdU incorporation. 2000 Mv1Lu mink lung epithelial cells were seeded in each well of a white, opaque 384 well plate. The cells were seeded in 40 μL of 1% mink media and immediately 40 μL of 2× stocks of the reagents shown was added to each well and the cells were allowed to incubate at 37° C. with 5% CO2. After 24 hours, 9 μL of 100 μM BrdU in 1% mink medium was added to each well, for a final concentration of 10 μM BrdU. The cells were incubated at 37° C. with 5% CO2 for an additional 16 hours and then an anti-BrdU cytoblot protocol was performed (see protocol). Wells shown are magnified 2.5×.
The ability of the cytoblot assay to detect changes in DNA synthesis was tested by measuring the incorporation of 5-bromodeoxyuridine (BrdU, Sigma Corporation, St. Louis, Mo., Cat.# B9285) into DNA in the presence or absence of the anti-mitogen transforming growth factor β (TGF-β). Mink lung cells, which are responsive to TGF-β, were seeded into each well of an opaque, white 384-well plate. The cells were subsequently treated with varying concentrations of TGF-β for 16 hours and then with 10 μM BrdU for 16 hours. […] The following protocols provide experimental detail. […]

HeLaS3 cells = assay: BrdU and phosphonucleolin cytoblots in nocodazole-arrested HeLa cells; assay type: cell-based, human
Procedure: as §1
It should also be possible to find small molecules that induce exit from mitosis, resulting in a reduction in phosphonucleolin levels. As the nocodazole-induced arrest of cells in mitosis requires cyclin-dependent kinase (CDK) activity for the activation of the spindle assembly checkpoint, inhibition of CDK activity should suppress nocodazole-induced mitotic arrest (FIG. 11a). […]

[3] = system: hyperacetylated histone H4; assay: 384 well anti-acetylated histone H4 cytoblot; assay type: cell-based, human; conditions: A549 cells; 300 nM trichostatin A, 100 nM trapoxin, 24 hours
Procedure: FIG. 5. An immunodetection assay for the accumulation of hyperacetylated histone H4 in high density arrays of mammalian cells. A549 human lung carcinoma cells were seeded at a density of 4000 cells in 40 μL of DMEM+ in each well of an opaque 384 well plate and incubated overnight at 37° C. with 5% CO2. Cells were either untreated, washed once and treated with 0.5% serum, 80 pM TGF-β, 300 nM trichostatin A, 100 nM trapoxin or 250 nM nocodazole and incubated for 24 hours at 37° C. with 5% CO2 in a final volume of 50 μL. A cytoblot was performed (see Protocol) and the presence of the hyperacetylated form of histone H4 was detected using a two step antibody binding procedure using an anti-acetylated H4 antibody and a secondary antibody conjugated to the enzyme horseradish peroxidase. Wells are shown magnified 25×.
Any post-translational modification that can be recognized by an antibody (or ligand) may be used in a cytoblot screen. […] In addition, antibodies against the phosphorylated form of nucleolin (FIG. 6a) or histone H3 (FIG. 6b) were used to detect the presence of phosphonucleolin or phosphohistone H3 respectively, both of which server as biochemical markers of the mitotic state of cells (Anderson et al. Experimental Cell Research 238: 498-502 1998; Vincent et al. J. Cell. Biol. 132:413-425. 1996)). The following protocol provides experimental detail. […]

[4] = system: mink lung epithelial cells; assay: BrdU cytoblot assay for S-phase progression; assay type: cell-based
Text: BRDU CYTOBLOT ASSAY: The BrdU cytoblot assay for S-phase progression was described previously by Stockwell et al. (Chem. Biol. 6:71, 1999; see also, U.S. Patent Application Ser. No. 60/094,305, incorporated herein by reference).
Compounds that mimic TGFβ activity would be expected to be capable of inducing cell cycle arrest or apoptosis, and in particular to block DNA replication, in responding cells. We therefore used an S-phase progression cytoblot assay to test whether our compounds could inhibit 5-bromodeoxyuridine (BrdU) incorporation into mink epithelial cells. […] Both compounds were therefore classified as true TGFβ mimics.

Compound: Nc1ncc2[nH]cnc2n1 [2-aminopurine]
- suppression of ICRF-193-induced G2 arrest ([1]; 1 mM 2-aminopurine or 2 mM caffeine with ICRF-193 and 250 nM nocodazole, 18 hours): prevented the arrest in response to ICRF-193; also recorded: suppress a DNA damage-independent topoisomerase inhibitor-induced G2-checkpoint arrest

Compound: COC(=O)Nc1nc2ccc(C(=O)c3cccs3)cc2[nH]1 [nocodazole]
- mitotic arrest (phosphonucleolin) ([1]; 250 nM nocodazole, 18 hours): arrested in mitosis
- BrdU incorporation [2]: effectively prevent BrdU incorporation
- accumulation of phosphonucleolin (HeLaS3 cells; HeLa cells, nocodazole 415 nM): induces the accumulation of phosphonucleolin
- incorporation of BrdU (HeLaS3 cells; HeLa cells, nocodazole 415 nM): prevents the incorporation of BrdU

Compound: CC[C@H](CO)Nc1nc(NCc2ccccc2)c2ncn(C(C)C)c2n1 [roscovitine]
- prevention of nocodazole mitotic arrest [1]: prevented this mitotic arrest
- exit from nocodazole-induced arrest (disappearance of phosphonucleolin) (HeLaS3 cells; nocodazole 14 hours, then roscovitine): cells exited from the nocodazole-induced arrest; also recorded: suppresses only the accumulation of phosphonucleolin
- BrdU incorporation after roscovitine (HeLaS3 cells; nocodazole 14 hours, then roscovitine, 10 μM BrdU 6 hours): did not begin to incorporate BrdU

Compound: O=C(CCCCC[C@@H]1NC(=O)[C@H]2CCCCN2C(=O)[C@H](Cc2ccccc2)NC(=O)[C@H](Cc2ccccc2)NC1=O)C1CO1 (stereo partly shown) [trapoxin, trapoxin A] (HELM PEPTIDE1{F.F.[O=C([C@H]1CCCCN1[*:1])[*:2]].[O=C(CCCCC[C@H](N[*:1])C(=O)[*:2])C1CO1]}$PEPTIDE1,PEPTIDE1,1:R1-4:R2$$$V2.0)
- acetylation of histone H4 [3]: increase in the acetylation of histone H4
- BrdU incorporation [2]: effectively prevent BrdU incorporation

Compound: CC(/C=C/C(=O)NO)=C\[C@@H](C)C(=O)c1ccc(N(C)C)cc1 [trichostatin, trichostatin A]
- acetylation of histone H4 [3]: increase in the acetylation of histone H4

Compound: CuCl2 [Cu^2+]
- BrdU incorporation [4]: inhibition of BrdU incorporation

Compound: ICRF-193
- prevention of nocodazole mitotic arrest [1]: prevented this mitotic arrest

Reference: patent publication US20080311589A1, “METHOD OF HIGH-THROUGHPUT SCREENING OF MOLECULES AND COMPOUNDS FOR THEIR EFFECTS ON BIOLOGICAL AND CHEMICAL PROCESSES” (priority 1999, published 2008)
